{"source": "patent US9044474B2", "about": "“Compositions and methods for increasing drug efficacy in cancer” (The Ohio State University, priority 2010, dated 2015)", "key": {"CLL cells [1]": {"system": "CLL cells", "test": "LC3-Lamp2 co-localization (autophagosome-lysosome fusion) by confocal microscopy in CLL cells", "type": "cell-based, human", "conditions": "CLL cells, 4 hours, flavopiridol 2 μM", "experimental": "After 4 hours exposure to agents, cells were washed in phosphate-buffered saline (PBS) and made adherent on a microscope slide by centrifugation in a Cytospin3 (Shandon) centrifuge. Immediately after cytospin, cells were fixed in cold acetone. […] Nuclei were stained blue with DAPI (Vector Laboratories, Burlingame, Calif.). Images were taken using a 60× objective and 4× digital zoom with Olympus Fluoview 1000 Laser Scanning Confocal microscope at the Ohio State University Campus Microscopy and Imaging Facility. ATF6 antibody was purchased from LifeSpan Biosciences (Seattle, Wash.) and Nrf2 was from Santa Cruz Biotechnology (Santa Cruz, Calif.). Nuclei were evaluated for ATF6 and Nrf2 using confocal microscopy to collect Z stacks, approximately 45 slices per cell, 0.2 μm each.\nLC3 intensity and number of dots per cell were both assessed in the fluorescence images. Integrated intensity was measured using Metamorph v.7.0. To calculate the number of “dots” (local extreme point in pixel-intensity profile at which a number of high-intensity pixels form a cluster), a Gaussian filter was first applied to reduce noise. Cells were enumerated electronically by an improved watershed-based algorithm. To quantify co-localization, two binary nuclei images—red (R) and green (G)—are obtained. […]"}, "CLL cells [2]": {"system": "CLL cells", "test": "Cell viability by annexin V/PI flow cytometry in CLL cells", "experimental": "Percent of live cells was determined by staining with annexin V-fluorescein isothiocyanate and propidium iodide (PI). After exposure to agents, cells were washed with PBS and stained in 1× binding buffer (BD Biosciences, Franklin Lakes, N.J.). Cell viability was assessed by flow cytometry using a Beckman-Coulter Cytomics FC500 cytometer. Data were analyzed with the CXP Cytometer software package (Beckman-Coulter). A total of 10,000 cells were counted for each sample. The cells treated with flavopiridol were washed after 4 hours with PBS and re-suspended in regular growth medium (RPMI 1640) supplemented with 10% human serum and antibiotics for the remainder of the incubation time. […] For all the other conditions, cells were incubated with the respective drugs for 24 hours continuously.\nCLL cells were suspended in buffer V (Amaxa kit, Lonza, Allendale, N.J.) and nucleofection was performed using program U016 (5 μg siRNA and 1×10^7 cells per cuvette). Scrambled siRNA and siRNAs to ATG5, ATG7 and ASK1 were purchased from Sigma-Aldrich. Cells were immediately suspended in warm, complete media supplemented with 10% human serum, and RNA was extracted after 36 hours. For CDK1 and CDK5, siRNAs were purchased from Applied Biosystems (Carlsbad, Calif.). Transfections were done using 5 nM siRNA per cuvette, and RNA was harvested at 48 hours."}, "XBP1, IRE1, GRP78": {"system": "XBP1, IRE1, GRP78", "test": "Real-time RT-PCR of ER stress genes in CLL cells in vitro", "type": "cell-based, human", "conditions": "CLL cells n=5; flavopiridol 2 μM, thapsigargin 1 μM, tunicamycin 3 μg/ml; CD52 control gene", "experimental": "(§1) RNA was extracted using TRIzol reagent (Invitrogen, Carlsbad, Calif.) and purified using QIAGEN RNeasy columns (Qiagen, Valencia, Calif.). cDNA was prepared with SuperScript First-Strand Synthesis System (Invitrogen). Real-time PCR was performed using primers purchased from Applied Biosystems. Detection was performed using an ABI Prism 7700 sequence detection system (Applied Biosystems). Average relative expression (treatment compared with vehicle) was normalized to the internal control gene CD52. Primers to detect spliced XBP1 were designed using Primer 3 software and purchased from IDT. Samples were analyzed on 10% acrylamide gels."}, "XBP1, IRE1, GRP78, CHOP": {"system": "XBP1, IRE1, GRP78, CHOP", "test": "Real-time RT-PCR of ER stress genes in CLL cells from patients undergoing flavopiridol treatment", "type": "in vivo, human", "conditions": "CLL patients n=10, 4.5 hour", "experimental": "as §1"}, "PERK": {"system": "PERK", "test": "PERK activity by eIF2α phosphorylation immunoblot in CLL cells", "type": "cell-based, human", "experimental": "(§2) Proteins extracted from whole cell lysates (50 μg/lane) were separated on polyacrylamide gels and transferred on nitrocellulose membrane. Antibodies used for immunoblots included LC3, IRE1α, TRAF2, PI3K III, ATG4C, ATG5-12, UVRAG, Beclin-1 (Cell Signaling, Boston, Mass.), GAPDH, Nrf2, ASK1, ULK1 (Santa Cruz Biotechnology), and Bif-1, ATG14-Barkor (Sigma-Aldrich, St Louis, Mo.). Species-appropriate secondary antibodies were obtained from BioRad Laboratories (Hercules, Calif.). Following antibody incubations, proteins were detected using a chemiluminescent substrate (BioRad Laboratories). For co-immunoprecipitations, TrueBlot beads (eBiosciences, San Diego, Calif.) and One-hour IP Western kit (GenScript, Piscataway, N.J.) were used according to manufacturer protocols. Quantification was done using FluorChem Q (Alpha Innotech, San Leandro Calif.)."}, "Jurkat cell line": {"system": "Jurkat cell line", "test": "eIF2α phosphorylation immunoblot in cell lines (control)", "type": "cell-based", "experimental": "as §2"}, "[3]": {"system": "cell lines 293T, RAW and 697, normal B cells", "test": "XBP1 splicing PCR in normal B cells and cell lines", "type": "cell-based", "experimental": "as §1"}, "[4]": {"system": "ATF6 at GRP78 promoter region", "test": "ChIP assay of ATF6 at GRP78 promoter in cells from CLL patients undergoing flavopiridol treatment", "type": "in vivo, human", "conditions": "CLL patient samples before and 4.5 hour after flavopiridol infusion", "experimental": "In brief, cells were treated with 37% formaldehyde to ensure crosslinking of proteins to DNA. Cells were lysed and sonicated to shear the chromatin to fragments of approximately 500 bp. Sheared chromatin was incubated with ATF6 antibody (LifeSpan Biosciences, Seattle, Wash.), followed by precipitation, washing and reversing of the crosslinks Purified DNA was then analyzed by real-time quantitative PCR using primers to the GRP78 promoter region. Primers were designed using Primer 3 software and purchased from IDT (Coralville, Iowa)."}, "IRE1-ASK1-TRAF2 complex": {"system": "IRE1-ASK1-TRAF2 complex", "test": "Co-immunoprecipitation of IRE1-ASK1-TRAF2 complex in 697 cells", "type": "cell-based", "experimental": "as §2"}, "CLL cells [5]": {"system": "CLL cells", "test": "Intracellular calcium in CLL cells", "type": "cell-based, human", "conditions": "CLL cells treated with flavopiridol"}}, "note": "Counter-ions that a name gives are not always drawn.", "data": [{"smiles": "CN1CC[C@H](c2c(O)cc(O)c3c(=O)cc(-c4ccccc4Cl)oc23)[C@H](O)C1", "note": "[flavopiridol, (cis-5,7-dihydroxy-2-(2-chlorophenyl)-8-[4-(3-hydroxy-1-methyl)-piperidin-yl]-1-benzopyran-4-one)hydrochloride]", "values": [{"measurement": "autophagy flux by LC3-Lamp2 co-localization, agent alone", "setting": "CLL cells [1]", "result": "unrestricted autophagy flux was demonstrated by co-localization of LC3 and Lamp2"}, {"measurement": "effect of ASK1 siRNA vs scrambled siRNA on sensitivity to the agent", "setting": "CLL cells [2]; CLL cells n=5, flavopiridol 2 μM", "result": "significantly (P=0.005) more resistant"}, {"measurement": "effect of chloroquine addition on cell death caused by the agent", "setting": "CLL cells [2]; CLL cells, annexin/PI negative, CQ 0.5 μM, flavopiridol 4 hours then washed, CQ continuous 24 hours", "result": "significantly enhances the cytotoxicity"}, {"measurement": "effect of ATG5/ATG7 siRNA vs scrambled siRNA on cytotoxicity of the agent", "setting": "CLL cells [2]; CLL cells, viability at 24 hours, thapsigargin 1 μM, flavopiridol 2 μM", "result": "significantly increased"}, {"measurement": "expression of ER stress genes XBP1, IRE1 and GRP78", "setting": "XBP1, IRE1, GRP78", "result": "significant, time-dependent increase in expression of ER stress genes XBP1, IRE1 and GRP78"}, {"measurement": "expression of XBP1, IRE1 and GRP78 genes, pre-treatment vs end of infusion", "setting": "XBP1, IRE1, GRP78, CHOP", "result": "significant increases in XBP1, IRE1 and GRP78 genes"}, {"measurement": "PERK activity (phosphorylation of eIF2α)", "setting": "PERK", "result": "minimally active"}, {"measurement": "eIF2α phosphorylation", "setting": "Jurkat cell line", "result": "dramatic EIF2α phosphorylation"}, {"measurement": "XBP1 splicing", "setting": "[3]", "result": "XBP1 splicing is detected"}, {"measurement": "binding of GRP78 promoter region by ATF6", "setting": "[4]", "result": "results were similar"}, {"measurement": "ASK1 and IRE1 protein in TRAF2 co-immunoprecipitates", "setting": "IRE1-ASK1-TRAF2 complex", "result": "increased levels of ASK1 and IRE1 protein in TRAF2 co-immunoprecipitates"}, {"measurement": "intracellular calcium", "setting": "CLL cells [5]", "result": "increase of intracellular calcium"}]}]}
